The results in this text go back to PubChem BioAssay AID330 (DTP/NCI, 2004).

This assay concerns P388 leukemia ip, CD2F1 mice, survival T/C. Briefly: NCI In Vivo Anticancer Drug Screen. Data for tumor model P388 Leukemia (intraperitoneal) in CD2F1 (CDF1) mice. Conditions: endpoint: median survival time, higher = longer survival. The method in brief:
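Mice carrying the transplanted tumor received test compound or vehicle. Survival was recorded in each group, and the value is the treated-group measurement divided by that of the vehicle-treated control group.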

Setting [1] is: dose: 100.0 mg/kg/injection, schedule: Q01DX009 (ip), vehicle: saline with Tween-80.
The mark [2] stands for this setting: dose: 100.0 mg/kg/injection, schedule: Q04DX003 (ip), vehicle: saline with Tween-80.
Setting [3] is: dose: 200.0 mg/kg/injection, schedule: Q04DX003 (ip), vehicle: saline with Tween-80.
Setting [4] is: dose: 400.0 mg/kg/injection, schedule: Q04DX003 (ip), vehicle: saline with Tween-80.
Setting [5] is: dose: 25.0 mg/kg/injection, schedule: Q01DX009 (ip), vehicle: Klucel (hydroxypropylcellulose) (HPC).
Where [6] appears, read: dose: 50.0 mg/kg/injection, schedule: Q01DX009 (ip), vehicle: Klucel (hydroxypropylcellulose) (HPC).
Setting [7] is: dose: 100.0 mg/kg/injection, schedule: Q01DX009 (ip), vehicle: Klucel (hydroxypropylcellulose) (HPC).
Setting [8] is: dose: 200.0 mg/kg/injection, schedule: Q01DX009 (ip), vehicle: Klucel (hydroxypropylcellulose) (HPC).
Setting [9] is: dose: 50.0 mg/kg/injection, schedule: Q01DX005 (ip), vehicle: saline with Tween-80.
Where [10] appears, read: dose: 100.0 mg/kg/injection, schedule: Q01DX005 (ip), vehicle: saline with Tween-80.
[11] abbreviates: dose: 50.0 mg/kg/injection, schedule: Q01DX009 (ip), vehicle: saline with Tween-80.
The mark [12] stands for this setting: dose: 200.0 mg/kg/injection, schedule: Q01DX009 (ip), vehicle: saline with Tween-80.
Where [13] appears, read: dose: 200.0 mg/kg/injection, schedule: Q01DX005 (ip), vehicle: saline with Tween-80.

Several values for one entry are separate records, joined by “and”; a condition that tells them apart may be missing. Equal values may be shown once. Inconclusive results and toxic doses are left out.

`Nc1cc(N)cc(Cc2ccccc2)c1`: the T/C under setting [1] was 100 % of control, the T/C under setting [2] was 100 % of control, the T/C under setting [3] is 109 % of control and the T/C under setting [4] is 95 % of control.
On to `CN1C(=O)Cc2ccccc21`, for which the T/C is, setting by setting: under setting [5], 99 % of control; under setting [6], 101 % of control; under setting [7], 105 % of control; under setting [8], 99 % of control.
Regarding `O=C1NC(=O)C2NC(O)=C(O)NC2N1` (centres undefined), the T/C was 102 % of control (dose: 12.5 mg/kg/injection, schedule: Q01DX001 (ip), vehicle: saline with Tween-80) and 108 % of control (dose: 25.0 mg/kg/injection, schedule: Q01DX001 (ip), vehicle: saline with Tween-80).
As to `COc1cccc2c1C(=O)c1c(O)c3c(c(O)c1C2=O)CC(OC1CC(N)C(O)C(C)O1)(C(C)=O)CC3OC1CC(N)C(O)C(C)O1` (centres undefined), the T/C runs as follows: (dose: 1.56 mg/kg/injection, schedule: Q01DX009 (ip), vehicle: water) 107 % of control; (dose: 3.13 mg/kg/injection, schedule: Q01DX009 (ip), vehicle: water) 103 % of control; (dose: 6.25 mg/kg/injection, schedule: Q01DX009 (ip), vehicle: water) 108 % of control; (dose: 12.5 mg/kg/injection, schedule: Q01DX009 (ip), vehicle: water) 122 % of control.
For the compound `ICCCCCCCCCC[n+]1ccc2ccccc2c1`, under setting [9], the T/C was 107 % of control.
With `C=CCn1c(Br)nc2c1c(=O)n(CC)c(=O)n2CC`, the T/C reads like this: (dose: 16.0 mg/kg/injection, schedule: Q01DX009 (ip), vehicle: Klucel (hydroxypropylcellulose) (HPC)) 107 % of control; (dose: 32.0 mg/kg/injection, schedule: Q01DX009 (ip), vehicle: Klucel (hydroxypropylcellulose) (HPC)) 107 % of control; under setting [6], 89 % of control; (dose: 64.0 mg/kg/injection, schedule: Q01DX009 (ip), vehicle: Klucel (hydroxypropylcellulose) (HPC)) 93 % of control; under setting [7], 91 % of control; under setting [8], 94 % of control.
With `CN(C)NP(=S)(NN(C)C)Oc1ccccc1`, the T/C is 117 % of control under setting [9] and 99 % of control under setting [10].
Regarding `Cc1cccc(Cl)c1NC(=O)C(C)N1CCCC1` (centres undefined), the T/C by setting is: (dose: 12.5 mg/kg/injection, schedule: Q01DX009 (ip), vehicle: saline) 100 % of control; (dose: 25.0 mg/kg/injection, schedule: Q01DX009 (ip), vehicle: saline) 90 % of control; (dose: 50.0 mg/kg/injection, schedule: Q01DX009 (ip), vehicle: saline) 109 % of control.
Regarding `CCCCCCCCC(=O)N1SC(NC(=O)OC)=Nc2ccccc21`, the T/C (dose: 50.0 mg/kg/injection, schedule: Q01DX005 (ip), vehicle: acetone) was 98 % of control; the T/C (dose: 100.0 mg/kg/injection, schedule: Q01DX005 (ip), vehicle: acetone) is 93 % of control; the T/C (dose: 200.0 mg/kg/injection, schedule: Q01DX005 (ip), vehicle: acetone) was 111 % of control.
Regarding `O=C1CC2CCCCC2CC1c1ccc(OCc2ccccc2)c(OCc2ccccc2)c1` (centres undefined), the T/C under setting [11] is 91 % of control, the T/C under setting [1] is 97 % of control and the T/C under setting [12] was 103 % of control.
`C/C=C(\C)C(=O)OC1C(C)C2(O)C(C=C(CO)CC3(O)C(=O)C(C)=CC32)C2C(C)(C)C12OC(=O)CCCCCCCCC` (centres undefined): the T/C by setting is: (dose: 0.13 mg/kg/injection, schedule: Q01DX009 (ip), vehicle: saline + alcohol) 124 % of control; (dose: 0.5 mg/kg/injection, schedule: Q01DX009 (ip), vehicle: saline + alcohol) 124 % of control.
As for `CN1CCC2CC1Cc1ccc(NS(C)(=O)=O)cc12` (centres undefined), the T/C is 98 % of control under setting [9], 100 % of control under setting [10] and 91 % of control under setting [13].
On to `CNC(=S)NNc1cccc2ccccc12`, for which the T/C runs as follows: (dose: 12.5 mg/kg/injection, schedule: Q01DX009 (ip), vehicle: other) 97 % of control; (dose: 25.0 mg/kg/injection, schedule: Q01DX009 (ip), vehicle: other) 101 % of control; (dose: 50.0 mg/kg/injection, schedule: Q01DX009 (ip), vehicle: other) 100 % of control; (dose: 100.0 mg/kg/injection, schedule: Q01DX009 (ip), vehicle: other) 103 % of control and 96 % of control; (dose: 200.0 mg/kg/injection, schedule: Q01DX009 (ip), vehicle: other) 103 % of control and 96 % of control; (dose: 400.0 mg/kg/injection, schedule: Q01DX009 (ip), vehicle: other) 94 % of control.
As to `O=[N+]([O-])c1ccc(N=Nc2ccccc2)cc1`, the T/C under setting [2] was 109 % of control, the T/C under setting [3] was 100 % of control and the T/C under setting [4] is 100 % of control.
In the case of `CCc1ccccc1NC(=O)NCC(C)C`, the T/C by setting is: under setting [6], 105 % of control; under setting [7], 97 % of control; under setting [8], 105 % of control.
`CNC(=O)OCc1c(-c2ccccc2)c(-c2ccccc2)n(C)c1COC(=O)NC`: the T/C is 102 % of control (dose: 1.56 mg/kg/injection, schedule: Q01DX009 (ip), vehicle: distilled water + Tween-80); 154 % of control and 164 % of control (dose: 12.5 mg/kg/injection, schedule: Q01DX009 (ip), vehicle: distilled water + Tween-80); 160 % of control and 174 % of control (dose: 25.0 mg/kg/injection, schedule: Q01DX009 (ip), vehicle: distilled water + Tween-80); 165 % of control and 171 % of control (dose: 50.0 mg/kg/injection, schedule: Q01DX009 (ip), vehicle: distilled water + Tween-80).
Turning to `c1ccc(CC2NCCc3c2[nH]c2ccccc32)cc1` (centres undefined), the T/C is, setting by setting: under setting [9], 100 % of control; under setting [10], 99 % of control; under setting [13], 94 % of control.
Regarding `C=C1C(=O)C23C(O)CC4C(C)(C)C(OC(C)=O)C(OC(C)=O)CC4(C)C2CCC1C3O` (centres undefined), the T/C was 115 % of control (dose: 11.88 mg/kg/injection, schedule: Q01DX005 (ip), vehicle: Klucel (hydroxypropylcellulose) (HPC)); 112 % of control (dose: 23.75 mg/kg/injection, schedule: Q01DX005 (ip), vehicle: Klucel (hydroxypropylcellulose) (HPC)); 112 % of control (dose: 47.5 mg/kg/injection, schedule: Q01DX005 (ip), vehicle: Klucel (hydroxypropylcellulose) (HPC)).
For the compound `[O-][n+]1nc2ccccc2c2ccccc21`, the T/C is 105 % of control (dose: 12.5 mg/kg/injection, schedule: Q01DX009 (ip), vehicle: Klucel (hydroxypropylcellulose) (HPC)); 105 % of control under setting [5]; 105 % of control and 97 % of control under setting [6]; 102 % of control under setting [7].
`O=C(CCl)n1ccc(=O)n(C(=O)CCl)c1=O`: the T/C is 113 % of control (dose: 100.0 mg/kg/injection, schedule: Q04DX002 (ip), vehicle: saline); 100 % of control (dose: 200.0 mg/kg/injection, schedule: Q04DX002 (ip), vehicle: saline); 103 % of control (dose: 400.0 mg/kg/injection, schedule: Q04DX002 (ip), vehicle: saline).
For `Clc1ccc2noc(-c3ccccc3)c2c1`, the T/C is 94 % of control under setting [11]; 91 % of control under setting [1]; 98 % of control under setting [12]; 94 % of control (dose: 400.0 mg/kg/injection, schedule: Q01DX009 (ip), vehicle: saline with Tween-80).
Consider `O=S(=O)(OCCF)c1cc(Cl)c(Cl)cc1Cl`, for which the T/C (dose: 12.5 mg/kg/injection, schedule: Q01DX005 (ip), vehicle: Klucel (hydroxypropylcellulose) (HPC)) is 98 % of control; the T/C (dose: 25.0 mg/kg/injection, schedule: Q01DX005 (ip), vehicle: Klucel (hydroxypropylcellulose) (HPC)) was 98 % of control; the T/C (dose: 50.0 mg/kg/injection, schedule: Q01DX005 (ip), vehicle: Klucel (hydroxypropylcellulose) (HPC)) is 89 % of control.
Consider `COn1nnc2ccc(Cl)cc21`, for which the T/C runs as follows: under setting [6], 99 % of control; under setting [7], 100 % of control; under setting [8], 100 % of control.
Regarding `COc1ccc(/C=C2/C(=O)ON=C2C)cc1`, the T/C was 108 % of control (dose: 60.0 mg/kg/injection, schedule: Q01DX005 (ip), vehicle: saline with Tween-80); 110 % of control (dose: 120.0 mg/kg/injection, schedule: Q01DX005 (ip), vehicle: saline with Tween-80); 109 % of control (dose: 240.0 mg/kg/injection, schedule: Q01DX005 (ip), vehicle: saline with Tween-80).
Turning to `Fc1cc(F)c(F)c(OCC2CO2)c1F` (centres undefined), the T/C reads like this: under setting [11], 100 % of control; under setting [1], 94 % of control; under setting [12], 101 % of control.
With `O=C1NC(=O)C2C3OC(C12)C1C2C(=O)NC(=O)C2C31` (centres undefined), the T/C runs as follows: under setting [9], 105 % of control; under setting [10], 104 % of control.
